The results in this text go back to patent US11382897B2, “Therapeutic combination for treatment of cerebellar ataxia” (The Regents of the University of Michigan, priority 2017, dated 2022).

The nature of series [1]: Water solubility (preparation of drinking water). In kind it is physicochemical. The protocol:
(§1) SKA-31 was dissolved in drinking water at 600 μM for all studies. […] For vehicle treatment, drinking water containing 0.05% β-(hydroxypropyl)-cyclodextrin, NaOH, and sucrose was used. Water bottles were changed twice weekly. Mice were treated with water bottles beginning at 28 days of age and maintained on water bottles for the duration of the experiment.

Series [2] deals with ATXN1[82Q] Purkinje neurons. In words: Analysis of intrinsic dendritic excitability (dendritic calcium spikes). The format is cell-based, mice.
The subject of series [3] is ATXN1[82Q] Purkinje neurons. In words: Whole-cell patch-clamp recordings: membrane potential and after-hyperpolarization (AHP). In kind it is cell-based, mice. (Patch clamp records ionic current or voltage across a cell membrane.)
The conditions of series [4]: both, mouse, in vivo. The protocol: as §1
Series [5] concerns SCA patients. The conditions noted are these: human, in vivo.
Series [6] deals with non-firing ATXN1[82Q] Purkinje neurons. In words: Cell-attached recordings of Purkinje neuron spiking in acute cerebellar slices. The format is cell-based, mice. The conditions noted are these: 5 weeks of age, chlorzoxazone 50 μM, baclofen 10 μM, SKA-31 10 μM, 1-EBIO 100 μM.

With `Nc1nc2c(ccc3ccccc32)s1` [SKA-31, Naphtho[1,2-d]thiazol-2-ylamine], in series [1], the water solubility result is reported as “not easily water-soluble”. The “dendritic (hyper)excitability: threshold of injected current to elicit dendritic calcium spikes” value in series [2] is recorded as “does not reduce dendritic hyperexcitability”. Besides, the “duration of the AHP” value in series [3] (SKA-31 10 μM, chlorzoxazone 50 μM and baclofen 10 μM) was “extended the duration of the AHP”. In series [4], this compound gave a brain level of 1.83 ± 1.30 µM and a plasma level of 0.03939 ± 0.00805 µM.

Turning to `NCC(CC(=O)O)c1ccc(Cl)cc1` (stereo not drawn) [baclofen, Baclofen], the “Other comments: tolerability” value in series [5] is on record as “Could not tolerate;”. In addition, the “dendritic (hyper)excitability: threshold of injected current to elicit dendritic calcium spikes” value in series [2] is given as “reduce dendritic hyperexcitability”. The “effect of baclofen on dendritic excitability in the presence of TEA” value in series [2] (TEA 1 mM, baclofen 2 μM) is listed as “does not block the effect of baclofen”. In addition, in series [2] (U73122 10 μM in recording pipette (phospholipase C inhibitor), baclofen 2 μM), the “effect of baclofen on dendritic excitability in the presence of U73122” value is “did not prevent the effect of baclofen on dendritic excitability”. Further, in series [2] (barium 500 μM, baclofen 2 μM), the “effect of baclofen on dendritic excitability in the presence of barium” value is on record as “did not prevent the effect of baclofen”. For the same compound, the “effect of baclofen on dendritic excitability with cesium in the recording pipette” value in series [2] (cesium chloride 140 mM in the recording pipette, baclofen 2 μM) is recorded as “prevents the effect of baclofen”. The “membrane potential of depolarized Purkinje neurons after the agent” value in series [3] was −52 mV. In series [4], this compound yielded a brain level of 0.37735 ± 0.0585 µM and a plasma level of 3.06 ± 0.51 µM. In addition, the “restoration of repetitive (tonic) spiking in non-firing Purkinje neurons” value in series [6] was “Neither chlorzoxazone alone nor baclofen alone consistently restores spiking”.
